Experimental findings from patent publication US20260166128A1, “HUMAN AMYLIN ANALOG, AND DERIVATIVE THEREOF AND USE THEREOF” (priority 2022, published 2026) are described below.

Structures are written as SMILES. Numbered stars: 1 amine (or outer) side, 2 acyl side, 3 side chain; on linkers, the order of the positions; unused ones are H or OH. Bridge positions count the residues as written; N and C are the ends. Square brackets hold non-standard residues; d marks the D form. Side chains are listed from the residue outwards. Peptide text beside a SMILES is read from it. * marks the point of attachment. C20 diacid = O=C(O)CCCCCCCCCCCCCCCCCCC(=O)*; γGlu = O=C(O)[C@H](CCC(=O)[*:2])N[*:1]; Hyp = O=C(O)[C@@H]1C[C@@H](O)CN1; AEEA = NCCOCCOCC(=O)O

Data set [1] can be described thus: Freeze-thaw stability of derivatives (freeze-thaw yield by liquid chromatography). The format is physicochemical. To be noted: for Dissolution property: appearance after dissolution at 0.2 mg/ml in 20 mM phosphate buffer solution (PB) (pH 7.0); for Freeze storage property: appearance after overnight storage at −20° C. and thawing to room temperature, 0.2 mg/ml in 20 mM PB (pH 7.0); for Freeze storage yield: concentration of polypeptide after freezing and thawing / concentration before, by liquid chromatography, −20° C. overnight. The gist of the method: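 Lyophilised peptide derivative dissolved at 0.2 mg/ml in 20 mM phosphate buffer, pH 7.0, frozen overnight at −20° C, then thawed at room temperature. Peptide concentration before and after freeze-thaw measured by reversed-phase HPLC on centrifuged supernatant; yield = post-thaw/pre-thaw concentration.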

Another data set deals with T1, human amylin receptor (Homo sapiens, UniProt O60896+P30988).
T1 construct: host or cells: CHO-K1/Ga15/AMY3 cells, further stably transfected with a CRE-luciferase plasmid
T1 sequence (P30988 25-474): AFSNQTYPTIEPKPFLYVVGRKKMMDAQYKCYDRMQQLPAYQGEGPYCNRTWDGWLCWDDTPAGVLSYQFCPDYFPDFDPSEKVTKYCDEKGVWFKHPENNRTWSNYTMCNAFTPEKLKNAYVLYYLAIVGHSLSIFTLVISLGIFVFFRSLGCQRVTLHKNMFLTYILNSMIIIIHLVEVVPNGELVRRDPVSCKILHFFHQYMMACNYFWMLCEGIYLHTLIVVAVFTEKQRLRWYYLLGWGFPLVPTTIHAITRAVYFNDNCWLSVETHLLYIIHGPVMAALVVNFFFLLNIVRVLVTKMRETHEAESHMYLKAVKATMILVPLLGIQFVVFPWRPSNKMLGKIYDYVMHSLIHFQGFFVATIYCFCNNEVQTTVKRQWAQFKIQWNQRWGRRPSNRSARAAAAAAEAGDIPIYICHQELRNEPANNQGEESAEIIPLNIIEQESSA
T1 sequence (O60896 24-148 partner): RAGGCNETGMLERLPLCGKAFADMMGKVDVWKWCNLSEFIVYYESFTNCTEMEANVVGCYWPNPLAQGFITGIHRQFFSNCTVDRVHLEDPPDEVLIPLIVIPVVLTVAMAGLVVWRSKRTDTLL
Description: Luciferase assay of amylin derivatives in amylin receptor/CRE-luc CHO cell line. The class given is cell-based. To be noted: CHO-K1/Ga15/AMY3 CRE-luc cells, 24 hours incubation, F12 medium containing 10% FBS; read-out: EC50.

Description for human amylin receptor: The experiment was intended to detect the activity or efficacy of the amylin derivatives on a human amylin receptor in vitro by luciferase assay.
50 μL of growth medium (F12 medium containing 10% FBS) was added into each well of a white 96-well plate, and the stably transfected amylin/CRE-lue CHO cells were inoculated into the white 96-well plate at a density of about 20,000 cells/well for activity determination.

As to `CC[C@H](C)[C@H](NC(=O)[C@@H]1CCCN1C(=O)[C@H](CCCCNC(=O)CC[C@H](NC(=O)CCCCCCCCCCCCCCCCCCC(=O)O)C(=O)O)NC(=O)[C@H](CC(C)C)NC(=O)[C@H](CC(N)=O)NC(=O)[C@H](CC(N)=O)NC(=O)[C@H](CO)NC(=O)[C@H](CO)NC(=O)[C@H](Cc1c[nH]cn1)NC(=O)[C@H](CCCNC(=N)N)NC(=O)[C@H](CC(C)C)NC(=O)[C@H](Cc1ccccc1)NC(=O)[C@H](CCC(=O)O)NC(=O)[C@H](C)NC(=O)[C@H](CC(C)C)NC(=O)[C@H](CCCNC(=N)N)NC(=O)[C@H](CCC(N)=O)NC(=O)[C@@H](NC(=O)[C@H](C)NC(=O)[C@@H]1CSSC[C@H](N)C(=O)N[C@@H](CC(N)=O)C(=O)N[C@@H]([C@@H](C)O)C(=O)N[C@@H](C)C(=O)N[C@@H]([C@@H](C)O)C(=O)N1)[C@@H](C)O)C(=O)N[C@@H](CC(C)C)C(=O)N1CCC[C@H]1C(=O)N1CCC[C@H]1C(=O)N[C@H](C(=O)N[C@@H](CC(N)=O)C(=O)N[C@H](C(=O)NCC(=O)N[C@@H](CO)C(=O)N[C@@H](CC(N)=O)C(=O)N[C@H](C(=O)N1CCC[C@H]1C(N)=O)[C@@H](C)O)C(C)C)[C@@H](C)O` [PD049] (H-CNTATCATQRLAEFLRHSSNNLK([γGlu-C20 diacid])PILPPTNVGSNTP-NH2; disulfide 1-6 (inferred); N-terminus assumed), in data set [1], the Dissolution property entry is “Clear”, the Freeze storage property entry is on record as “Clear” and the Freeze storage yield was determined as 99.00%. The concentration giving a half-maximal response (EC50) (usually the concentration at which the effect is half-maximal) at human amylin receptor is 0.215 nM.
With `CC[C@H](C)[C@H](NC(=O)[C@@H]1CCCN1C(=O)[C@H](CCCCNC(=O)COCCOCCNC(=O)COCCOCCNC(=O)CC[C@H](NC(=O)CCCCCCCCCCCCCCCCCCC(=O)O)C(=O)O)NC(=O)[C@H](CC(C)C)NC(=O)[C@H](CC(N)=O)NC(=O)[C@H](CC(N)=O)NC(=O)[C@H](CO)NC(=O)[C@H](CO)NC(=O)[C@H](Cc1c[nH]cn1)NC(=O)[C@H](CCCNC(=N)N)NC(=O)[C@H](CC(C)C)NC(=O)[C@H](Cc1ccccc1)NC(=O)[C@H](CCC(=O)O)NC(=O)[C@H](C)NC(=O)[C@H](CC(C)C)NC(=O)[C@H](CCCNC(=N)N)NC(=O)[C@H](CCC(N)=O)NC(=O)[C@@H](NC(=O)[C@H](C)NC(=O)[C@@H]1CSSC[C@H](NC(=O)[C@@H](N)CCCNC(=N)N)C(=O)N[C@@H](CC(N)=O)C(=O)N[C@@H]([C@@H](C)O)C(=O)N[C@@H](C)C(=O)N[C@@H]([C@@H](C)O)C(=O)N1)[C@@H](C)O)C(=O)N[C@@H](CC(C)C)C(=O)N1CCC[C@H]1C(=O)N1CCC[C@H]1C(=O)N[C@H](C(=O)N[C@@H](CC(N)=O)C(=O)N[C@H](C(=O)NCC(=O)N[C@@H](CO)C(=O)N[C@@H](CC(N)=O)C(=O)N[C@H](C(=O)N1CCC[C@H]1C(N)=O)[C@@H](C)O)C(C)C)[C@@H](C)O` [PD004] (H-RCNTATCATQRLAEFLRHSSNNLK([AEEA-AEEA-γGlu-C20 diacid])PILPPTNVGSNTP-NH2; disulfide 2-7 (inferred); N-terminus assumed), in data set [1], the Dissolution property result is “Clear” and the Freeze storage property result is “Clear”. Moreover, the 50% effective concentration (EC50) on human amylin receptor was determined as 0.102 nM.
As for `CC[C@H](C)[C@H](NC(=O)[C@@H]1CCCN1C(=O)CNC(=O)[C@H](CC(C)C)NC(=O)[C@H](CC(N)=O)NC(=O)[C@H](CC(N)=O)NC(=O)[C@H](CO)NC(=O)[C@H](CO)NC(=O)[C@H](Cc1c[nH]cn1)NC(=O)[C@H](CCCNC(=N)N)NC(=O)[C@H](CC(C)C)NC(=O)[C@H](Cc1ccccc1)NC(=O)[C@H](CC(=O)O)NC(=O)[C@H](C)NC(=O)[C@H](CC(C)C)NC(=O)[C@H](CCCNC(=N)N)NC(=O)[C@H](CCC(N)=O)NC(=O)[C@@H](NC(=O)[C@H](C)NC(=O)[C@@H]1CSSC[C@H](NC(=O)[C@H](CCCCN)NC(=O)COCCOCCNC(=O)COCCOCCNC(=O)CC[C@H](NC(=O)CCCCCCCCCCCCCCCCCCC(=O)O)C(=O)O)C(=O)N[C@@H](CC(N)=O)C(=O)N[C@@H]([C@@H](C)O)C(=O)N[C@@H](C)C(=O)N[C@@H]([C@@H](C)O)C(=O)N1)[C@@H](C)O)C(=O)N[C@@H](CC(C)C)C(=O)N1CCC[C@H]1C(=O)N1CCC[C@H]1C(=O)N[C@H](C(=O)N[C@@H](CC(N)=O)C(=O)N[C@H](C(=O)NCC(=O)N[C@@H](CO)C(=O)N[C@@H](CC(N)=O)C(=O)N[C@H](C(=O)N1C[C@H](O)C[C@H]1C(N)=O)[C@@H](C)O)C(C)C)[C@@H](C)O` [PD123] ({C20 diacid-γGlu-AEEA-AEEA}-KCNTATCATQRLADFLRHSSNNLGPILPPTNVGSNT[Hyp]-NH2; disulfide 2-7 (inferred)), in data set [1], the Dissolution property result is “Clear”, the Freeze storage property entry is given as “Clear” and the Freeze storage yield was determined as 102.11%. Besides, on human amylin receptor, the EC50 came out at 0.068 nM.
As for `CC[C@H](C)[C@H](NC(=O)[C@@H]1CCCN1C(=O)CNC(=O)[C@H](CC(C)C)NC(=O)[C@H](CCCCNC(=O)CC[C@H](NC(=O)CCCCCCCCCCCCCCCCCCC(=O)O)C(=O)O)NC(=O)[C@H](CC(N)=O)NC(=O)[C@H](CO)NC(=O)[C@H](CO)NC(=O)[C@H](Cc1c[nH]cn1)NC(=O)[C@H](CCCNC(=N)N)NC(=O)[C@H](CC(C)C)NC(=O)[C@H](Cc1ccccc1)NC(=O)[C@H](CCC(=O)O)NC(=O)[C@H](C)NC(=O)[C@H](CC(C)C)NC(=O)[C@H](CCCNC(=N)N)NC(=O)[C@H](CCC(N)=O)NC(=O)[C@@H](NC(=O)[C@H](C)NC(=O)[C@@H]1CSSC[C@H](NC(=O)[C@@H](N)CCCNC(=N)N)C(=O)N[C@@H](CC(N)=O)C(=O)N[C@@H]([C@@H](C)O)C(=O)N[C@@H](C)C(=O)N[C@@H]([C@@H](C)O)C(=O)N1)[C@@H](C)O)C(=O)N[C@@H](CC(C)C)C(=O)N1CCC[C@H]1C(=O)N1CCC[C@H]1C(=O)N[C@H](C(=O)N[C@@H](CC(N)=O)C(=O)N[C@H](C(=O)NCC(=O)N[C@@H](CO)C(=O)N[C@@H](CC(N)=O)C(=O)N[C@H](C(=O)N1CCC[C@H]1C(N)=O)[C@@H](C)O)C(C)C)[C@@H](C)O` [PD007] (H-RCNTATCATQRLAEFLRHSSNK([γGlu-C20 diacid])LGPILPPTNVGSNTP-NH2; disulfide 2-7 (inferred); N-terminus assumed), in data set [1], the Dissolution property entry is on record as “Clear” and the Freeze storage property entry is given as “Clear”. For the same molecule, the EC50 at human amylin receptor was determined as 0.205 nM.
